Assay results published in patent publication US3989835A, “Method of using 6-substituted amino phenyl-2,3,5,6-tetra-hydro[2,1-b]thiazoles for controlling gastrointestinal nematodes” (American Cyanamid Company, priority 1974, dated 1976).
Structures can show the parent of a compound that is named as a salt. Where two headings read alike, the source gives them in different places.

Key:
in vivo = details: for Approx. LD50 /ED50: chemotherapeutic index, mouse oral, N. dubius
Description: Data on the acute oral toxicity to mice of various single oral doses of the above compounds and several analogs were obtained by conventional procedures, (Table IX hereinafter).

Nematospiroides dubius = experiment: Anthelmintic efficacy against N. dubius in mice, single oral dose; format: in vivo, Nematospiroides dubius (in albino female mice); details: for inhibition in vivo at 20 mg/kg: single oral dose 20 mg./Kg.; for inhibition in vivo at 40 mg/kg: single oral dose 40 mg./Kg.; for inhibition in vivo at 4 mg/kg: single oral dose 4.0 mg./Kg.; for inhibition in vivo at 0.625 mg/kg: single oral dose 0.625 mg./Kg., adjusted to molar equivalents of tetramisole free base
Procedure: Albino female mice are each inoculated with about 20 infectious larvae of Nematospiroides dubius. This nematode is a representative of the economical important trichostrongylis worms of ruminants and other hosts, and of nematodes in general. Twenty-two days after inoculation, groups of four randomly selected mice containing adult N. dubius are given single oral doses of test compounds dissolved or suspended in 0.4 ml. of water per 20 gram mouse. At 26 or 27 days after inoculation, treated mice and in each test four randomly selected groups of untreated mice are necropsied. The number of worms in the small intestine of each mouse are determined by microscopic examination. Average worm numbers for each treated group and for the untreated controls are computed and the percent efficacy determined by the customary formula:
(Average Worms in Control - Average Worms in Treated)/(Average Worms in Control) X 100.

[1] = mouse, in vivo, po, Approx. LD50, mouse oral, Table IX
[2] = mouse, in vivo, po, LD50, mice, adjusted to molar equivalents of tetramisole free base
[3] = single oral dose 50 Mg./Kg., mice
[4] = single oral dose 100 Mg./Kg., mice
[5] = single oral dose 200 Mg./Kg., mice
[6] = Heligmosomoides polygyrus, po, as Base, single oral dose, mice, > indicates inactive at dose shown, read-out: Approx. ED50
[7] = Heligmosomoides polygyrus, po, mouse oral, Table IX, read-out: Approx. ED50 vs. N. dubius
[8] = Heligmosomoides polygyrus, po, single oral dose 5.0 mg./Kg., molar-adjusted, read-out: Percent Nematospiroides Activity
[9] = Heligmosomoides polygyrus, po, single oral dose 10 mg./Kg., molar-adjusted, read-out: Percent Nematospiroides Activity
[10] = Heligmosomoides polygyrus, po, molar-adjusted, read-out: Percent Nematospiroides Activity
[11] = single oral dose 60 Mg./Kg., mice
[12] = single oral dose 80 Mg./Kg., mice
[13] = single oral dose 120 Mg./Kg., mice
[14] = Heligmosomoides polygyrus, po, single oral dose 1.25 mg./Kg., molar-adjusted, read-out: Percent Nematospiroides Activity
[15] = Heligmosomoides polygyrus, po, single oral dose 2.0 mg./Kg., molar-adjusted, read-out: Percent Nematospiroides Activity
[16] = Heligmosomoides polygyrus, po, read-out: Percent Nematospiroides Activity

Structure (SMILES) | LD50 (in vivo; [1]) | LD50 (in vivo; [2]) | ED50 (Nematospiroides dubius; [7]) | inhibition in vivo at 5 mg/kg (Nematospiroides dubius; [8]) | inhibition in vivo at 10 mg/kg (Nematospiroides dubius; [9]) | inhibition in vivo at 1.25 mg/kg (Nematospiroides dubius; [14]) | inhibition in vivo at 2 mg/kg (Nematospiroides dubius; [15]) | also measured
CC(C)(C)C(=O)Nc1cccc(C2CN3CCSC3=N2)c1 (racemic) [m-NH--CO--C(CH3)3 dl] | 100 mg/kg | ~100 mg/kg | 3 mg/kg | 75% | 88% |  |  | Approx. LD50 /ED50 (in vivo; Table IX): 33; Dead/Total (in vivo; [3]): 0/6; Dead/Total (in vivo; [4]): 2/6; Dead/Total (in vivo; [5]): 5/6; ED50 (Nematospiroides dubius; [6]): 3 mg/kg; inhibition in vivo at 20 mg/kg (Nematospiroides dubius; [10]): 100%
O=C(Nc1cccc(C2CN3CCSC3=N2)c1)c1ccccc1 (racemic) [m-NH-CO dl] | 60 mg/kg | ~60 mg/kg | 1 mg/kg | 100% | 100% | 67% | 94% | Approx. LD50 /ED50 (in vivo; Table IX): 60; Dead/Total (in vivo; single oral dose 40 Mg./Kg., mice): 0/6; Dead/Total (in vivo; [11]): 3/6; Dead/Total (in vivo; [12]): 4/6; Dead/Total (in vivo; [13]): 5/6; ED50 (Nematospiroides dubius; [6]): 1 mg/kg; inhibition in vivo at 20 mg/kg (Nematospiroides dubius; [10]): 100%
CCC(CC)C(=O)Nc1cccc(C2CN3CCSC3=N2)c1 (racemic) [m-NH-CO-CH(C2 H5)2 dl] | 160 mg/kg | ~160 mg/kg | 7.5 mg/kg |  | 85% |  |  | Approx. LD50 /ED50 (in vivo; Table IX): 21; Dead/Total (in vivo; [12]): 0/6; Dead/Total (in vivo; [13]): 0/6; Dead/Total (in vivo; single oral dose 180 Mg./Kg., mice): 3/6; ED50 (Nematospiroides dubius; [6]): 7.5 mg/kg; inhibition in vivo at 20 mg/kg (Nematospiroides dubius; [10]): 99%; inhibition in vivo at 40 mg/kg (Nematospiroides dubius; [10]): 100%
COC(=O)Nc1cccc(C2CN3CCSC3=N2)c1 (racemic) [m-NH-CO-OCH3 dl, dl-m-(2,3,5,6-tetrahydroimidazo[2,1-b]thiazol-6-yl)carbanilic acid methyl ester, hydrochloride] | 150 mg/kg | ~125 mg/kg | 15 mg/kg |  | 25% |  |  | Approx. LD50 /ED50 (in vivo; Table IX): 10; Dead/Total (in vivo; [3]): 0/5; Dead/Total (in vivo; [4]): 0/5; Dead/Total (in vivo; single oral dose 150 Mg./Kg., mice): 3/5; Dead/Total (in vivo; [5]): 5/5; ED50 (Nematospiroides dubius; [6]): 15 mg/kg; inhibition in vivo at 20 mg/kg (Nematospiroides dubius; [10]): 96%; inhibition in vivo at 40 mg/kg (Nematospiroides dubius; [10]): 100%
O=CNc1cccc(C2CN3C=CSC3=N2)c1 (stereo not shown) [5,6-dihydro HNCHO] |  | ~150 mg/kg |  |  | 100% |  |  | inhibition in vivo at 4 mg/kg (Nematospiroides dubius; [10]): 64%
Cl.Cl.Nc1cccc(C2CN3C=CSC3=N2)c1 (stereo not drawn) [5,6-dihydro m-NH2 dl, 6-(m-Aminophenyl)-5,6-dihydroimidazo[2,1-b]thiazole dihydrochloride] | 10 mg/kg | ~80 mg/kg | 1.5 mg/kg | 96% | 100% |  | 53% | ED50 (Nematospiroides dubius; [6]): 1.5 mg/kg
O=C(CCl)Nc1cccc(C2CN3CCSC3=N2)c1 (stereo not shown) [H--N--CO--CH2 Cl] |  | 50 to 60 mg/kg |  | 100% |  | 84% |  | inhibition in vivo at 40 mg/kg (Nematospiroides dubius; [10]): 100%; inhibition in vivo at 50 mg/kg (Nematospiroides dubius; Heligmosomoides polygyrus, po, single oral dose 50 mg./Kg., molar-adjusted, read-out: Percent Nematospiroides Activity): 100%
CC(=O)Nc1cccc(C2CN3CCSC3=N2)c1 (stereo not shown) [HN--CO--CH3] |  | 40 to 60 mg/kg |  |  | 100% |  |  | inhibition in vivo at 4 mg/kg (Nematospiroides dubius; [10]): 66%
CCCCCCC(=O)Nc1cccc(C2CN3CCSC3=N2)c1 (stereo not shown) [HNCO(CH2)5 CH3] |  |  |  |  |  |  |  | LD50 (in vivo; mice, adjusted to molar equivalents of tetramisole free base): 20 to 25 mg/kg; Percent Nematospiroides Activity (Nematospiroides dubius; single oral dose 1.25 mg./Kg., molar-adjusted): 53%; Percent Nematospiroides Activity (Nematospiroides dubius; single oral dose 2.0 mg./Kg., molar-adjusted): 99%; Percent Nematospiroides Activity (Nematospiroides dubius; single oral dose 5.0 mg./Kg., molar-adjusted): 100%; Percent Nematospiroides Activity (Nematospiroides dubius; single oral dose 10 mg./Kg., molar-adjusted): 100%
CC(C)(C)CC(=O)Nc1cccc(C2CN3CCSC3=N2)c1 (stereo not shown) [HNCOCH2 C(CH3)2] |  | 80 to 100 mg/kg |  | 59% | 98% |  |  | 
Nc1ccc([N+](=O)[O-])c(C2CN3CCSC3=N2)c1 (stereo not shown) [R1 =H R4 =NO2] | 120 mg/kg | 120 to 140 mg/kg | 2 mg/kg |  | 100% |  | 43% | Approx. LD50 /ED50 (in vivo; Table IX): 60; Dead/Total (in vivo; [11]): 0/6; Dead/Total (in vivo; [13]): 2/6; Dead/Total (in vivo; single oral dose 240 Mg./Kg., mice): 6/6; ED50 (Nematospiroides dubius; Heligmosomoides polygyrus, po, continuation of Table X (R1/R4 disubstituted), read-out: ED50): 2 mg/kg; inhibition in vivo at 4 mg/kg (Nematospiroides dubius; [10]): 89%
O=C(C=Cc1ccccc1)Nc1cccc(C2CN3CCSC3=N2)c1 (stereo not shown) [Table XII b1827] |  | ~90 mg/kg |  | 100% | 100% | 60% | 67% | 
O=C(Nc1cccc(C2CN3CCSC3=N2)c1)c1ccccc1 (stereo not shown) [Table XII b1839] |  | 50 to 60 mg/kg |  |  |  | 94% | 100% | 
COc1ccc(C(=O)Nc2cccc(C3CN4CCSC4=N3)c2)cc1 (stereo not shown) [Table XII b1843] |  | 60 to 80 mg/kg |  | 100% |  | 58% | 95% | inhibition in vivo at 0.625 mg/kg (Nematospiroides dubius; [16]): 56%
O=C(Nc1cccc(C2CN3CCSC3=N2)c1)c1ccc(Cl)cc1 (stereo not shown) [Table XII b1847] |  | ~80 mg/kg |  | 100% |  | 63% | 90% | inhibition in vivo at 0.625 mg/kg (Nematospiroides dubius; [16]): 40%
O=C(Nc1cccc(C2CN3CCSC3=N2)c1)c1cccc(Cl)c1 (stereo not shown) [Table XII b1851] |  | 80 to 100 mg/kg |  | 97% |  | 52% | 95% | inhibition in vivo at 0.625 mg/kg (Nematospiroides dubius; [16]): 40%
O=C(Nc1cccc(C2CN3CCSC3=N2)c1)c1ccc(Cl)c(Cl)c1 (stereo not shown) [Table XII b1854] |  | 80 to 100 mg/kg |  | 95% |  | 52% | 92% | inhibition in vivo at 0.625 mg/kg (Nematospiroides dubius; [16]): 58%
O=C(Nc1cccc(C2CN3CCSC3=N2)c1)c1ccc([N+](=O)[O-])cc1 (stereo not shown) [Table XII b1857] |  | 60 to 90 mg/kg |  | 100% | 100% | 65% | 78% | 
O=C(Nc1cccc(C2CN3CCSC3=N2)c1)c1ccco1 (stereo not shown) [Table XII b1864] |  | 80 to 100 mg/kg |  | 85% | 99% |  | 37% | inhibition in vivo at 20 mg/kg (Nematospiroides dubius; [10]): 100%
O=C(Nc1cccc(C2CN3C=CSC3=N2)c1)c1ccccc1 (stereo not shown) [Table XIV b1987] |  | ~120 mg/kg |  | 94% | 100% |  |  | Percent Nematospirides Activity (Nematospiroides dubius; single oral dose 2.5 mg./Kg., molar-adjusted): 73%
CC(=O)Nc1cccc(C2CN3CCSC3=N2)c1 (stereo not drawn) [m-NH--CO--CH3 dl, 3'-(2,3,5,6-Tetrahydroimidazo[2,1-b]thiazol-6-yl)acetanilide] | > 10 mg/kg |  | 3 to 4 mg/kg |  |  |  |  | ED50 (Nematospiroides dubius; [6]): 4 mg/kg
